# Test results taken from PMC6121530, “Synthesis, Biological Evaluation and Molecular Docking of Novel Indole-Aminoquinazoline Hybrids for Anticancer Properties” (International Journal of Molecular Sciences, 2018).
# Target: T1, epidermal growth factor receptor tyrosine kinase (EGFR-TK) (Homo sapiens, UniProt P00533)
# T1 construct: purified Epidermal Growth Factor Receptor (Sigma-Aldrich)
# Test: ELISA kinase inhibition assay with purified EGFR
# Assay type: biochemical
# T1 sequence (P00533 25-1210): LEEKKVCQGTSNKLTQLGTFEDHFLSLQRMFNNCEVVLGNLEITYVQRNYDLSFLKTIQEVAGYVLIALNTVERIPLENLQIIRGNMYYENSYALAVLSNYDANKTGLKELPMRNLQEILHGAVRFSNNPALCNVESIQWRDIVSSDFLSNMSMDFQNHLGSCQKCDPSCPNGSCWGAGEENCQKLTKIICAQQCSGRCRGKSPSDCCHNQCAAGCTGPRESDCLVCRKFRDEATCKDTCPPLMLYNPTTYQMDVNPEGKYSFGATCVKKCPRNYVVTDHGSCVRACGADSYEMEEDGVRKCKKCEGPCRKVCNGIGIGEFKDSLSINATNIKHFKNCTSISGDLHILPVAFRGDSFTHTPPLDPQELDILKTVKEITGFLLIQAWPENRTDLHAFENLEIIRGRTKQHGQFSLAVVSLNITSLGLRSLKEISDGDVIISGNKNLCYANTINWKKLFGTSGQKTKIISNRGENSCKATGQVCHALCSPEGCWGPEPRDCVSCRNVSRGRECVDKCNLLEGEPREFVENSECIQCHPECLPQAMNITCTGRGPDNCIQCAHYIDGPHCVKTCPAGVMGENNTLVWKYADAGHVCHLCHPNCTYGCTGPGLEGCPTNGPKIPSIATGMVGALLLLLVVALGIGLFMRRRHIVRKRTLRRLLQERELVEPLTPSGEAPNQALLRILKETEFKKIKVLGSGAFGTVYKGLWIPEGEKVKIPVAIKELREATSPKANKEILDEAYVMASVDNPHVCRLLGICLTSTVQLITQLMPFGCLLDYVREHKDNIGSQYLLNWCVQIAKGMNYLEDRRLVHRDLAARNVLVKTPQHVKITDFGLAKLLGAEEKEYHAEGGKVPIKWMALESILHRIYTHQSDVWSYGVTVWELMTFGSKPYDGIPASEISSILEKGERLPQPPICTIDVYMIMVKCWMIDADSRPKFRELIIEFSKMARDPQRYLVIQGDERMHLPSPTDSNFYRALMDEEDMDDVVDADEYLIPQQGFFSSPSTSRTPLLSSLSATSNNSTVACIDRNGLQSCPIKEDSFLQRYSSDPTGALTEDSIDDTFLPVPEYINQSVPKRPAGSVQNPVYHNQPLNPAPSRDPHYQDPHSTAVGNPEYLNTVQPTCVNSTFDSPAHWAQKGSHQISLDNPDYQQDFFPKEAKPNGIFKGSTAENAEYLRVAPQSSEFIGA
structure (smiles),measurement,value
"Fc1ccc(-c2nc(Nc3cc(Br)cc4cc(-c5ccc(F)cc5)[nH]c34)c3ccccc3n2)cc1 [4f, N-(5-Bromo-2-(4-fluorophenyl)-1H-indol-7-yl)-2-(4-fluorophenyl)quinazolin-4-amine]",IC50,0.0525 µM
